From ChEMBL document CHEMBL1151032, “Local constrained shifty pseudopeptides inhibitors of rasfarnesyl transferase” (Bioorg Med Chem Lett, 1995)
One block for each compound: values may come before it.

Tests used:
[1] = molecular target: T1, Protein farnesyltransferase (Homo sapiens, UniProt P49354+P49356); assay: In vitro inhibition of farnesyl transferase; type: protein-complex assay
[2] = molecular target: T2, Protein farnesyltransferase (Mus musculus, UniProt Q61239+Q8K2I1); assay: Inhibition of farnesyl transferase in NIH3T3 cell based assay in non-reducing (-DTT) conditions; type: functional
[3] = molecular target: T2, Protein farnesyltransferase; assay: Inhibition of farnesyl transferase in NIH3T3 cell based assay under reducing (+DTT) conditions; type: functional
[4] = molecular target: T1, Protein farnesyltransferase; assay: In vitro inhibition of farnesyl transferase enzyme (inactive); type: protein-complex assay
NIH3T3 [5] = assay: Inhibition of Ki-Ras-transformed NIH3T3 cell growth at 10 uM; type: functional; settings: Mus musculus
NIH3T3 [6] = assay: Inhibition of Ki-Ras-transformed NIH3T3 cell growth at 5 uM; type: functional; settings: Mus musculus
NIH3T3 [7] = assay: Inhibition of v-Raf-transformed NIH3T3 cell growth at 10 uM; type: functional; settings: Mus musculus
NIH3T3 [8] = assay: Inhibition of Ha-Ras-transformed NIH3T3 cell growth at 1 uM; type: functional; settings: Mus musculus
NIH3T3 [9] = assay: Inhibition of Ha-Ras-transformed NIH3T3 cell growth at 5 uM; type: functional; settings: Mus musculus
NIH3T3 [10] = assay: Inhibition of Ki-Ras-transformed NIH3T3 cell growth at 1 uM; type: functional; settings: Mus musculus
NIH3T3 [11] = assay: Inhibition of Ha-Ras-transformed NIH3T3 cell growth at 10 uM; type: functional; settings: Mus musculus
[12] = molecular target: Protein farnesyltransferase (Bos taurus, UniProt P29702+P49355); assay: In vitro inhibition of bovine farnesyl transferase; type: protein-complex assay
[13] = molecular target: T1, Protein farnesyltransferase; assay: In vitro inhibition of Human farnesyl transferase; type: protein-complex assay

IC50 [1]: 0.05 µM | IC50 [2]: > 1000 µM | IC50 [3]: > 1000 µM
SMILES: CSCC[C@H](NC(=O)[C@@H]1Cc2ccccc2CN1C(=O)CNCCSSCCNCC(=O)N1Cc2ccccc2C[C@H]1C(=O)N[C@@H](CCSC)C(=O)O)C(=O)O

IC50 [4]: Not Active
SMILES: CSCCC(NC(=O)C1Cc2ccccc2CN1CC(=O)NCCSSCCNC(=O)CN1Cc2ccccc2CC1C(=O)NC(CCSC)C(=O)O)C(=O)O (stereo not given)

IC50 [1]: 0.1 µM
SMILES: CSCC[C@H](NC(=O)[C@@H]1Cc2ccccc2CN1C(=O)CNCCS)C(=O)O

IC50 [1]: > 100 µM | IC50 [2]: > 1000 µM | IC50 [3]: > 1000 µM
SMILES: COC(=O)[C@H](CCSC)NC(=O)[C@@H]1Cc2ccccc2CN1C(=O)CN(CCSSCCN(CC(=O)N1Cc2ccccc2C[C@H]1C(=O)N[C@@H](CCSC)C(=O)OC)C(=O)OC(C)(C)C)C(=O)OC(C)(C)C

IC50 [1]: 2 µM
SMILES: CSCCC(NC(=O)C1Cc2ccccc2CN1CC(=O)NCCS)C(=O)O (stereo not given)

IC50 [1]: 0.145 µM | IC50 [2]: 100 µM | IC50 [3]: 100 µM
SMILES: COC(=O)[C@H](CCSC)NC(=O)[C@@H]1Cc2ccccc2CN1C(=O)CNCCSSCCNCC(=O)N1Cc2ccccc2C[C@H]1C(=O)N[C@@H](CCSC)C(=O)OC
inhibition at 10 µM (NIH3T3 [5]): 97% | inhibition at 5 µM (NIH3T3 [6]): 89% | inhibition at 10 µM (NIH3T3 [7]): 9% | inhibition at 1 µM (NIH3T3 [8]): 9% | inhibition at 5 µM (NIH3T3 [9]): 80% | inhibition at 1 µM (NIH3T3 [10]): 24% | inhibition at 10 µM (NIH3T3 [11]): 91%

IC50 [1]: > 100 µM
SMILES: CSCC[C@H](NC(=O)[C@@H]1Cc2ccccc2CN1C(=O)CN(CCS)C(=O)OC(C)(C)C)C(=O)O

IC50 [12]: 0.021 µM
SMILES: CSCC[C@H](NC(=O)[C@H](Cc1ccccc1)NC[C@@H](NC[C@@H](N)CS)C(C)C)C(=O)O

IC50 [4]: Not Active
SMILES: COC(=O)C(CCSC)NC(=O)C1Cc2ccccc2CN1CC(=O)NCCSSCCNC(=O)CN1Cc2ccccc2CC1C(=O)NC(CCSC)C(=O)OC (stereo not given)

IC50 [1]: > 100 µM
SMILES: COC(=O)[C@H](CCSC)NC(=O)[C@@H]1Cc2ccccc2CN1C(=O)CN(CCS)C(=O)OC(C)(C)C

IC50 [1]: > 100 µM | IC50 [2]: > 1000 µM | IC50 [3]: > 1000 µM
SMILES: CSCC[C@H](NC(=O)[C@@H]1Cc2ccccc2CN1C(=O)CN(CCSSCCN(CC(=O)N1Cc2ccccc2C[C@H]1C(=O)N[C@@H](CCSC)C(=O)O)C(=O)OC(C)(C)C)C(=O)OC(C)(C)C)C(=O)O

IC50 [4]: Not Active
SMILES: COC(=O)C(CCSC)NC(=O)C1Cc2ccccc2CN1CC(=O)NCCS (stereo not given)

IC50 [12]: 0.023 µM
SMILES: CSCC[C@H](NC(=O)[C@H](Cc1ccccc1)NC(=O)[C@@H](NC[C@@H](N)CS)C(C)C)C(=O)O

IC50 [13]: 0.005 µM
SMILES: CSCC[C@H](NC(=O)[C@@H]1Cc2ccccc2CN1C(=O)[C@H](C(C)C)N(C)C(=O)[C@@H](N)CS)C(=O)O

IC50 [1]: 0.29 µM
SMILES: COC(=O)[C@H](CCSC)NC(=O)[C@@H]1Cc2ccccc2CN1C(=O)CNCCS
